Laboratory results from US20250382631A1, “PROTAC-CID SYSTEMS FOR USE IN MULTIPLEX GENE REGULATION” (William Marsh Rice University, priority 2022, published 2025).

How the values were obtained:
[1] = test system: endogenous BRD4 (BRD4S, BRD4L); assay: Immunoblot of endogenous BRD4 in HEK293T cells; format: cell-based, human; details: MZ1 20 nM and 100 nM, 48 h, HEK293T with MZ1 PROTAC-CID, FIG. 22
Source text: Immunoblots and RT-qPCR. Mice liver tissues or culture cells were lysed in RIPA buffer (Abcam no. ab156034) supplemented with phosphatase inhibitor (Thermo Fisher Scientific no. PIA32957) and protease inhibitors (Fishers cientific no. A32965). Lysates were resolved by 10% Tris-glycine SDS-PAGE, transferred to PVDF membrane (Bio-Rad no. 1620177), and blotted with antibodies BRD4 (Abcam, ab128874), GAPDH (Cell Signaling Technology, 2118L), luciferase (ABclonal, requested), Ran (ABclonal, A0976), Hsp90 (Cell Signaling Technology, 4874). Images were acquired using LumiQuant AC600 (Acuronbio Technology Inc), quantification analysis was processed by ImageJ software. Trizol reagent (Sigma no. T9424) was used to extract total RNA from liver. RNAs were purified using RNeasy Mini kit (QIAGEN no. 4106). The quality and concentration of total RNA were checked on NanoDrop™ 2000/2000c Spectrophotometers (Thermo Fisher Scientific no. ND2000LAPTOP). Reverse transcription of total RNA was performed using a Applied Biosystems™ High-Capacity cDNA Reverse Transcription Kit (Thermo Fisher Scientific no. 4368813) and qPCR was conducted with SYBR Green Master Mix (Abclonal no. RK21203) on QuantStudio 6 Real-time PCR system (Thermo Fisher Scientific).

[2] = after MZ1 administration, FIG. 23
[3] = test system: three different genomic sites in HEK293T cells; assay: Inducible C-to-T base editing by A3G5.13 (Sanger sequencing, EditR); format: cell-based, human; details: CBE A3G5.13 with dTAG-13 PROTAC-CID, 100 nM dTAG-13, 3 days, across three genomic sites, FIG. 3C
Description: Base editing measurement. Before transfection, HEK293T cells were plated into 96 well plates (Corning no. 3598) with 20% confluency. 0.5 μL Lipofectamine 2000 (Life Technology no. 11661089) was mixed with 25 μL DMEM for 5 mins incubation. 80 ng to 210 ng Plasmids (See Table 1 for plasmid dosage used in each condition) were then mixed with 25 μL DMEM and added into the Lipofectamine 2000 and DMEM mixture for 20 min incubation at the room temperature. Mixture was added into cells gently. After 12 h, supernatants were changed with fresh 10% FBS (Thermo Fisher Scientific no. 10437028) DMEM medium (Thermo Fisher Scientific no. 10569044), Puromycin (10 μg/mL Thermo Fisher Scientific no. A1113803) and supplied with 100 nM dTAG-13 (TOCRIS no. 6605/5) or DMSO (Sigma, no. D8418). After 3 days, cell medium was removed and cells were treated with 100 μL lysis buffer (10 mM tris-HCl (pH=7.5), 0.05% SDS, and proteinase K (25 μg/mL, Thermo Fisher Scientific no. 01169965)) followed by 37° C. 1 h, 58° C. 30 min and inactivated at 95° C. for 20 min. The cell lysis was amplified by 2×Phanta Max Master Mix (Vazyme no. p515) following the program: 95° C. 3 min, 95° C. 15s and 58° C. 15s with 72° C. for 35 cycles, and 72° C. 5 min. The editing efficiency was measured by Sanger sequencing and analyzed by EditR (https://moriaritylab.shinyapps.io/editr_v10/) (Kluesner et al., 2018).

wild-type FKBP12 = wild-type FKBP12 (Homo sapiens, UniProt P62942); details: refs (32, 36); cited from earlier work
Chain of wild-type FKBP12 (P62942 whole entry, species assumed): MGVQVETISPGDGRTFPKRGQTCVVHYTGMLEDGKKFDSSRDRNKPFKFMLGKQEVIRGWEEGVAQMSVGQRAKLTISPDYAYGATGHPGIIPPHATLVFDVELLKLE

Structure (SMILES): Cc1ncsc1-c1ccc(CNC(=O)[C@@H]2C[C@@H](O)CN2C(=O)[C@@H](NC(=O)COCCOCCOCCNC(=O)C[C@@H]2N=C(c3ccc(Cl)cc3)c3c(sc(C)c3C)-n3c(C)nnc32)C(C)(C)C)cc1 [MZ1]
- degradation of endogenous BRD4 isoforms [1]: only observed the degradation of the short isoform of BRD4 (BRD4S), not the conventional long isoform BRD4 (BRD4L)
- abnormality or body weight change [2]: no abnormality or body weight change

Structure (SMILES): CC[C@H](C(=O)N1CCCC[C@H]1C(=O)O[C@H](CCc1ccc(OC)c(OC)c1)c1ccccc1OCC(=O)NCCCCCCOc1cccc2c1C(=O)N(C1CCC(=O)NC1=O)C2=O)c1cc(OC)c(OC)c(OC)c1 (stereo partly shown) [dTAG-13]
- C-to-T editing [3]: 30-50%
- degradation of wild-type FKBP12 (wild-type FKBP12): do not degrade wild-type FKBP12
